The NIST ThermoML archive (doi:10.1021/je700618y)
Numbers after ± are expanded uncertainties.

Assays:
[1] = 298.15 K, 101.33 kPa, Liquid; for viscosity: Capillary tube (Ostwald / Ubbelohde) method
[2] = refractive index (Na D-line) (dimensionless); settings: 298.15 K; 101.33 kPa; Liquid; Standard Abbe refractometry
[3] = refractive index (Na D-line) (dimensionless); xn = mol fraction of the nth substance listed; settings: 298.15 K, 101 kPa, Liquid, Standard Abbe refractometry
[4] = xn = mol fraction of the nth substance listed; settings: 298.15 K, 101 kPa, Liquid; for viscosity: Capillary tube (Ostwald / Ubbelohde) method; for mass density: Vibrating tube method

CCO [ethanol]
Settings | mass density [kg/m3] | refractive index | viscosity [mPa·s]
[1] | 785.12 ± 0.24 | – | 1.076 ± 0.012
[2] | – | 1.35937 ± 0.00031 | –

CCO [ethanol] + O
Settings | mass density, [4] [kg/m3] | refractive index, [3] | viscosity, [4] [mPa·s]
x2 = 0.048 | 791.06 ± 0.13 | 1.36013 ± 0.00031 | 1.158 ± 0.013
x2 = 0.1116 | 799.08 ± 0.13 | 1.361 ± 0.00031 | 1.261 ± 0.014
x2 = 0.1599 | 805.32 ± 0.12 | 1.3615 ± 0.00031 | 1.326 ± 0.015
x2 = 0.1761 | 807.44 ± 0.12 | 1.36168 ± 0.00031 | 1.36 ± 0.016
x2 = 0.2668 | 820.06 ± 0.12 | 1.36247 ± 0.00031 | 1.496 ± 0.017
x2 = 0.301 | 825.06 ± 0.12 | 1.36266 ± 0.00031 | 1.556 ± 0.018
x2 = 0.3994 | 840.69 ± 0.12 | 1.36295 ± 0.00031 | 1.726 ± 0.02
x2 = 0.497 | 858.26 ± 0.12 | 1.3628 ± 0.00031 | 1.932 ± 0.022
x2 = 0.6122 | 882.42 ± 0.12 | 1.36176 ± 0.00031 | 2.161 ± 0.024
x2 = 0.7116 | 907.85 ± 0.13 | 1.35974 ± 0.00031 | 2.385 ± 0.027
x2 = 0.7774 | 926.61 ± 0.13 | 1.35727 ± 0.00031 | 2.353 ± 0.027
x2 = 0.8145 | 937.62 ± 0.14 | 1.3554 ± 0.00031 | 2.366 ± 0.027
x2 = 0.8529 | 949.42 ± 0.13 | 1.35243 ± 0.00031 | 2.193 ± 0.025
x2 = 0.8967 | 960.95 ± 0.13 | 1.34783 ± 0.00032 | 1.92 ± 0.022
x2 = 0.9481 | 976.77 ± 0.13 | 1.34063 ± 0.00032 | 1.432 ± 0.017

COS(=O)(=O)[O-].C[N+](CCO)(CCO)CCO [tris(2-hydroxyethyl) methylammonium methylsulfate]
Settings | refractive index | viscosity [mPa·s]
[1] | – | 1236 ± 74
[2] | 1.48489 ± 0.001 | –

Settings | mass density [kg/m3]
[1], Vibrating tube method | 1344.13 ± 9.9

COS(=O)(=O)[O-].C[N+](CCO)(CCO)CCO [tris(2-hydroxyethyl) methylammonium methylsulfate] + CCO
Settings | mass density, [4] [kg/m3] | refractive index, [3] | viscosity, [4] [mPa·s]
x1 = 0.0482 | 876.74 ± 0.61 | 1.3818 ± 0.00035 | 2.26 ± 0.032
x1 = 0.0981 | 951.17 ± 0.55 | 1.39899 ± 0.00036 | 4.523 ± 0.058
x1 = 0.1509 | 1014.1 ± 0.48 | 1.41373 ± 0.00038 | 8.351 ± 0.11
x1 = 0.1994 | 1061.07 ± 0.51 | 1.42476 ± 0.0004 | 13.32 ± 0.17
x1 = 0.242 | 1097.16 ± 0.6 | 1.43322 ± 0.00042 | 19.62 ± 0.26
x1 = 0.2922 | 1132.75 ± 0.78 | 1.44083 ± 0.00045 | 29.16 ± 0.41
x1 = 0.3882 | 1187.8 ± 1.3 | 1.45307 ± 0.00052 | 58.72 ± 0.88
x1 = 0.4841 | 1229.34 ± 2.1 | 1.46222 ± 0.00059 | 110.8 ± 2.3
x1 = 0.5923 | 1264.46 ± 3.2 | 1.4695 ± 0.00068 | 204.3 ± 5.8
x1 = 0.6288 | 1273.93 ± 3.6 | 1.47153 ± 0.00072 | 247.6 ± 7.8
x1 = 0.6881 | 1288.67 ± 4.4 | 1.47511 ± 0.00077 | 333.6 ± 12
x1 = 0.7379 | 1299.19 ± 5.1 | 1.47666 ± 0.00081 | 430.4 ± 18
x1 = 0.7878 | 1309.46 ± 5.9 | 1.47867 ± 0.00085 | 518.1 ± 23
x1 = 0.8379 | 1318.78 ± 6.7 | 1.48018 ± 0.0009 | 657.1 ± 32
x1 = 0.8738 | 1324.39 ± 7.3 | 1.48134 ± 0.00093 | 775.7 ± 40
x1 = 0.9203 | 1331.87 ± 8.2 | 1.48278 ± 0.00097 | 902.1 ± 49

COS(=O)(=O)[O-].C[N+](CCO)(CCO)CCO [tris(2-hydroxyethyl) methylammonium methylsulfate] + O
Settings | mass density, [4] [kg/m3] | refractive index, [3] | viscosity, [4] [mPa·s]
x1 = 0.0478 | 1129.13 ± 1 | 1.38887 ± 0.00046 | 2.341 ± 0.027
x1 = 0.0967 | 1195.06 ± 0.65 | 1.41769 ± 0.00038 | 5.054 ± 0.071
x1 = 0.1939 | 1258.48 ± 0.59 | 1.44581 ± 0.00039 | 16.79 ± 0.21
x1 = 0.2421 | 1275.98 ± 0.77 | 1.4539 ± 0.00041 | 27 ± 0.35
x1 = 0.2894 | 1288.49 ± 0.94 | 1.45949 ± 0.00044 | 41.22 ± 0.57
x1 = 0.3872 | 1306.02 ± 1.5 | 1.46758 ± 0.00051 | 86.07 ± 1.4
x1 = 0.4858 | 1317.49 ± 2.3 | 1.47335 ± 0.00059 | 159.5 ± 3.9
x1 = 0.6064 | 1327.14 ± 3.6 | 1.47587 ± 0.00069 | 290.1 ± 9.8
x1 = 0.6698 | 1330.96 ± 4.4 | 1.47878 ± 0.00074 | 390.7 ± 15
x1 = 0.7822 | 1336.36 ± 6 | 1.4813 ± 0.00085 | 569 ± 26
x1 = 0.867 | 1339.64 ± 7.3 | 1.4827 ± 0.00092 | 756.2 ± 38
x1 = 0.9398 | 1342.07 ± 8.7 | 1.48341 ± 0.00099 | 960.7 ± 53
